ChEMBL document CHEMBL5214927, “Recent advance on carbamate-based cholinesterase inhibitors as potential multifunctional agents against Alzheimer's disease” (Eur J Med Chem, 2022)

What was measured:
[1] = molecular target: T1, Amine oxidase [flavin-containing] B (Homo sapiens, UniProt P27338); experiment: Inhibition of MAO-B (unknown origin)
T1 sequence (P27338 whole entry): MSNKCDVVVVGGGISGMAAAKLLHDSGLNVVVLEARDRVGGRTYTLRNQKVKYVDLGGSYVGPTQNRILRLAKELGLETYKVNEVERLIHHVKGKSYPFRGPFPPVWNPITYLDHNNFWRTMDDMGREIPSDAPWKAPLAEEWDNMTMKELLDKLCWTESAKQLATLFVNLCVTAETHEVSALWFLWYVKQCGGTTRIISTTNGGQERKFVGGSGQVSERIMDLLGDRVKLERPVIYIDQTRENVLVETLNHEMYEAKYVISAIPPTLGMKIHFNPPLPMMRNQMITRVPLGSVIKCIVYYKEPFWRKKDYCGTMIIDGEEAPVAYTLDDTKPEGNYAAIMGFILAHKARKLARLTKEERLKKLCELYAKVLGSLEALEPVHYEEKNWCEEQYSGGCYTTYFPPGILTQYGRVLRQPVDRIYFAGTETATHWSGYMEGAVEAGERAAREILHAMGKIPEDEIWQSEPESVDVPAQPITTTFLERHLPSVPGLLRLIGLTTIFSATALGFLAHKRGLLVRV

[2] = molecular target: T2, Acetylcholinesterase (Rattus norvegicus, UniProt P37136); experiment: Inhibition of rat AChE by Ellman's method
T2 sequence (P37136 whole entry): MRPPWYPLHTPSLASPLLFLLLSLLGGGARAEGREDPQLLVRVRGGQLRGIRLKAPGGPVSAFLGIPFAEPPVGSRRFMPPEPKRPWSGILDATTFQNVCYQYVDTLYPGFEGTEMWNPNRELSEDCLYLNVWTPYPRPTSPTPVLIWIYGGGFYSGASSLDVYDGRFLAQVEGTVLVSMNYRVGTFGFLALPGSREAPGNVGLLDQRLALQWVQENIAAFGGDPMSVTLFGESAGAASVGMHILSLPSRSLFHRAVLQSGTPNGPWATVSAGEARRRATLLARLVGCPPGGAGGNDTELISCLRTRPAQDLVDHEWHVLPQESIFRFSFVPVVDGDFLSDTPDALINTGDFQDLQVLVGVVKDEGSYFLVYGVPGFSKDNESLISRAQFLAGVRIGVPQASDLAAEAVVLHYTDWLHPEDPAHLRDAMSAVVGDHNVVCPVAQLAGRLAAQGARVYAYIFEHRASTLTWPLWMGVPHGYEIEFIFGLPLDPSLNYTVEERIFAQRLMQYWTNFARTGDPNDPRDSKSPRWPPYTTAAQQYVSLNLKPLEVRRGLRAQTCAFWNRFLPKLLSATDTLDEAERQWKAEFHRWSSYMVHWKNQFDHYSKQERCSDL

[3] = molecular target: T3, Amine oxidase [flavin-containing] A (Homo sapiens, UniProt P21397); experiment: Inhibition of MAO-A (unknown origin)
T3 sequence (P21397 whole entry): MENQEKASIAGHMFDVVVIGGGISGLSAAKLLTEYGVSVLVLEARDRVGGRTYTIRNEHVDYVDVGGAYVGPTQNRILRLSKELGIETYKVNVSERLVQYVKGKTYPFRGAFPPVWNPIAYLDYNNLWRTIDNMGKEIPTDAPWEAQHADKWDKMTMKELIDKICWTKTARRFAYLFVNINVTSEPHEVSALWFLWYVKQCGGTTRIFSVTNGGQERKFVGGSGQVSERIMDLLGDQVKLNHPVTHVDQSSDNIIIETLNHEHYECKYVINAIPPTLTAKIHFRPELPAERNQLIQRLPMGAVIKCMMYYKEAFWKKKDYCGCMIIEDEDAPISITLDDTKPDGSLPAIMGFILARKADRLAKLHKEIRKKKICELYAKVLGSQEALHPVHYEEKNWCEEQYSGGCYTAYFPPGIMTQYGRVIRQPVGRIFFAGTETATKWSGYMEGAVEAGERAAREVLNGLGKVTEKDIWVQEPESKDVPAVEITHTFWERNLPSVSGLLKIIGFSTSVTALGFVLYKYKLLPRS

[4] = molecular target: Acetylcholinesterase and butyrylcholinesterase (AChE and BChE) (Rattus norvegicus) (UniProt P37136+Q9JKC1); experiment: Selectivity index, ratio of IC50 for rat serum BChE to IC50 for rat cortex AChE
Sequence of Acetylcholinesterase and butyrylcholinesterase (AChE and BChE) (Rattus norvegicus) (Q9JKC1 1-597, one chain of several): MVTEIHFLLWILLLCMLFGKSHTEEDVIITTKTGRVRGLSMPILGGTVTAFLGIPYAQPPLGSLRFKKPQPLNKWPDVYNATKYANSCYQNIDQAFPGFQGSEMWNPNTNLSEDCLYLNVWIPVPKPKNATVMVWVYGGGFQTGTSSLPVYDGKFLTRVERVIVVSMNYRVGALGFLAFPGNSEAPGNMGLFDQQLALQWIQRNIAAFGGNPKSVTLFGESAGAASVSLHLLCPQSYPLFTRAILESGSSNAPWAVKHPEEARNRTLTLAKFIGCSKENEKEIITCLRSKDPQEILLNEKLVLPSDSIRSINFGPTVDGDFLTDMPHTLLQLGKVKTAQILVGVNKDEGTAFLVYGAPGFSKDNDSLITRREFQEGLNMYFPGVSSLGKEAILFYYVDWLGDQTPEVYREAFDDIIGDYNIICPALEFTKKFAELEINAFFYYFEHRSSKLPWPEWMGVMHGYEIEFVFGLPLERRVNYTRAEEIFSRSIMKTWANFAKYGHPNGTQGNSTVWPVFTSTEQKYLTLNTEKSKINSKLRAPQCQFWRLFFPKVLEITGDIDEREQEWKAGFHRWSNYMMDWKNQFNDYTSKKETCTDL

[5] = molecular target: T2, Acetylcholinesterase; experiment: Inhibition of rat cortex AChE using acetylthiocholine iodide as substrate incubated for 15 mins by Ellman's method
[6] = molecular target: Butyrylcholinesterase (Rattus norvegicus, UniProt Q9JKC1); experiment: Inhibition of rat serum BChE using butyrylthiocholine iodide as substrate incubated for 15 mins by Ellman's method
Sequence of Butyrylcholinesterase (Q9JKC1 whole entry): as the sequence (Q9JKC1 1-597, one chain of several) above

[7] = molecular target: Beta-secretase 1 (Homo sapiens, UniProt P56817); experiment: Inhibition of BACE1 (unknown origin) using A-beta-PP as substrate by fluorescence based assay
[8] = molecular target: T4, Acetylcholinesterase (Homo sapiens, UniProt P22303); experiment: Binding affinity to AChE (unknown origin) assessed as inhibition constant preincubated for 60 mins followed by substrate addition measured after 60 mins by colorimetric method
T4 sequence (P22303 whole entry): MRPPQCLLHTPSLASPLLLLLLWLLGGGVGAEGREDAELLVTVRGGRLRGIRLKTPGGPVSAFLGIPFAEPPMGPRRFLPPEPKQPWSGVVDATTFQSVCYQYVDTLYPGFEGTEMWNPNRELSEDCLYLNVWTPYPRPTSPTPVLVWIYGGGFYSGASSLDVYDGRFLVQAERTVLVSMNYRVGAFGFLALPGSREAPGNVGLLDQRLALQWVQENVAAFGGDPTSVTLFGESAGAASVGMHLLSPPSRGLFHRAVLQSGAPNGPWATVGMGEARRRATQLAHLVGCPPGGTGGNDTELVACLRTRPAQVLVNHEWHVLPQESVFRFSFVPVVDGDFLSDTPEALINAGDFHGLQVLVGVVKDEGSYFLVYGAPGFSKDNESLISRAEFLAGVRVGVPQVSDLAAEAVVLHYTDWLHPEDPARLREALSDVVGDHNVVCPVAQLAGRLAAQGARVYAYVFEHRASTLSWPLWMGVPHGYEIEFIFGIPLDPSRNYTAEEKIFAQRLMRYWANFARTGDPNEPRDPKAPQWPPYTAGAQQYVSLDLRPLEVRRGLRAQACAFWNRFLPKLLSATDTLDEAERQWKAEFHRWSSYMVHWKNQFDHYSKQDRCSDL

[9] = molecular target: T5, Cholinesterases; ACHE & BCHE (Homo sapiens) (UniProt P06276+P22303); experiment: Selectivity index, ratio of IC50 for recombinant human serum BChE to IC50 for recombinant human serum AChE; type: protein assay
T5 sequence (P06276 whole entry, looked up): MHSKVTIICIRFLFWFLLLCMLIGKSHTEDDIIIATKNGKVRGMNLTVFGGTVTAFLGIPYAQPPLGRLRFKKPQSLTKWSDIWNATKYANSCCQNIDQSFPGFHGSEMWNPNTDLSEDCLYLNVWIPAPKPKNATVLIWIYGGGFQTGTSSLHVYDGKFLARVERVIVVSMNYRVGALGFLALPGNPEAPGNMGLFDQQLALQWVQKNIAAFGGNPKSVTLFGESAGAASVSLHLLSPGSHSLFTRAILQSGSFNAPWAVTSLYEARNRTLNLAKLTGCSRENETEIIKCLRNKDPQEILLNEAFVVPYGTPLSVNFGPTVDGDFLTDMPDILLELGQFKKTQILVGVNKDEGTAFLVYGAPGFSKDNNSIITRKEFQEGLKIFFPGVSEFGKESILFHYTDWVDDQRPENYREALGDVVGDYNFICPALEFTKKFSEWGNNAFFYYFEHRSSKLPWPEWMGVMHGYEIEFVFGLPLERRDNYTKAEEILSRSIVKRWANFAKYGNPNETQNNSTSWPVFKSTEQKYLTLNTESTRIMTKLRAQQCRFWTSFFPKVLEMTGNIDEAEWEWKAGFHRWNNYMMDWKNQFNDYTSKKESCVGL
T5 sequence (P22303 whole entry, looked up): as the sequence (P22303 whole entry) above

[10] = molecular target: T6, Cholinesterase (Homo sapiens, UniProt P06276); experiment: Inhibition of recombinant human serum BChE using acetylthiocholine iodide as substrate preincubated for 20 mins followed by substrate addition by Ellman's method
T6 sequence (P06276 whole entry): as the sequence (P06276 whole entry, looked up) above

[11] = molecular target: T4, Acetylcholinesterase; experiment: Inhibition of recombinant human serum AChE using acetylthiocholine iodide as substrate preincubated for 20 mins followed by substrate addition by Ellman's method
[12] = molecular target: T6, Cholinesterase; experiment: Binding affinity to human BChE assessed as inhibition constant
[13] = molecular target: T4, Acetylcholinesterase; experiment: Binding affinity to human AChE assessed as inhibition constant
[14] = molecular target: Carbonic anhydrase 2 (Homo sapiens, UniProt P00918); experiment: Binding affinity to human CA2 assessed as inhibition constant using p-nitrophenylacetate as substrate by spectrophotometry
[15] = molecular target: T4, Acetylcholinesterase; experiment: Binding affinity to AChE (unknown origin) assessed as inhibition constant using acetylthiocholine iodide as substrate preincubated for 10 mins followed by substrate addition by Ellman's method
[16] = molecular target: Carbonic anhydrase 1 (Homo sapiens, UniProt P00915); experiment: Binding affinity to human CA1 assessed as inhibition constant using p-nitrophenylacetate as substrate by spectrophotometry
Sequence of Carbonic anhydrase 1 (P00915 whole entry): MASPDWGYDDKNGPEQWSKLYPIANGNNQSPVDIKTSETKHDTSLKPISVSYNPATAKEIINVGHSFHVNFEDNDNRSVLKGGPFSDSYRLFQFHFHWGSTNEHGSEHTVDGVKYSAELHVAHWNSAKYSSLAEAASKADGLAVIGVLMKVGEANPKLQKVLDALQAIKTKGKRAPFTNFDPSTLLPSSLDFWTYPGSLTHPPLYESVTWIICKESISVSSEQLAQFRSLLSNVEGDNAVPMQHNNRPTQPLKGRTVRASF

[17] = molecular target: Muscarinic acetylcholine receptor M1 (Homo sapiens, UniProt P11229); experiment: Binding affinity to Muscarinic acetylcholine receptor M1 (unknown origin) assessed as inhibition constant
Sequence of Muscarinic acetylcholine receptor M1 (P11229 whole entry): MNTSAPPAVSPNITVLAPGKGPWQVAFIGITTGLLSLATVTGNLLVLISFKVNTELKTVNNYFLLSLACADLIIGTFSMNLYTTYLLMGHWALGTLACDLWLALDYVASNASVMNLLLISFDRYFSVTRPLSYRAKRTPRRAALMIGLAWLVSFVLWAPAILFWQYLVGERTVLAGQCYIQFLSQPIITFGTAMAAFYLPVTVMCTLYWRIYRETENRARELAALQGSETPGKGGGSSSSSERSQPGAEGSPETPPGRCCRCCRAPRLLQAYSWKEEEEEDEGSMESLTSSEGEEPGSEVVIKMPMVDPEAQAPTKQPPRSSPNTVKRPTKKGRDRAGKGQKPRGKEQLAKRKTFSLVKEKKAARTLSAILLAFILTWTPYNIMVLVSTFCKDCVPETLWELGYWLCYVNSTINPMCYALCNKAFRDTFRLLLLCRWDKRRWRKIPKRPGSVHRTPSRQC

[18] = molecular target: Muscarinic acetylcholine receptor M2 (Homo sapiens, UniProt P08172); experiment: Binding affinity to Muscarinic acetylcholine receptor M2 (unknown origin) assessed as inhibition constant
Sequence of Muscarinic acetylcholine receptor M2 (P08172 whole entry): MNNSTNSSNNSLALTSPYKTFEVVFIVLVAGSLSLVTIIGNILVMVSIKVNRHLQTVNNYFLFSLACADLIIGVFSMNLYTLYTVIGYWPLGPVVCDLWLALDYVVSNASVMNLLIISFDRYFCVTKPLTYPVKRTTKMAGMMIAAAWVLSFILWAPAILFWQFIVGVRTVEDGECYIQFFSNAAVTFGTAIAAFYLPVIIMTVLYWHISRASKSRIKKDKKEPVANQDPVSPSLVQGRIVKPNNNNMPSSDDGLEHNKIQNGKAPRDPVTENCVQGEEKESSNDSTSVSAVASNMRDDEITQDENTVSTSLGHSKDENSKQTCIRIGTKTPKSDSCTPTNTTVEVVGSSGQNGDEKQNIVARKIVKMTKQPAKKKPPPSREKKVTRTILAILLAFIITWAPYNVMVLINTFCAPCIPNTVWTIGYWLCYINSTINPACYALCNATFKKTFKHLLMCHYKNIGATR

[19] = molecular target: Muscarinic acetylcholine receptor M3 (Homo sapiens, UniProt P20309); experiment: Binding affinity to Muscarinic acetylcholine receptor M3 (unknown origin) assessed as inhibition constant
[20] = molecular target: T4, Acetylcholinesterase; experiment: Inhibition of human AChE
[21] = molecular target: Acetylcholinesterase (Torpedo californica, UniProt P04058)
Description: Inhibition of Pacific electric ray AChE using acetylthiocholine iodide as substrate by Ellman's method

[22] = molecular target: T5, Cholinesterases; ACHE & BCHE (Homo sapiens); experiment: Selectivity index, ratio of IC50 for AChE (unknown origin) to BChE (unknown origin); type: protein assay
[23] = molecular target: T3, Amine oxidase [flavin-containing] A; experiment: Inhibition of recombinant human MAO-A using p-tyramine as substrate preincubated for 15 mins followed by substrate addition measured upto 20 mins by Amplex red assay
[24] = molecular target: T4, Acetylcholinesterase; experiment: Inhibition of human erythrocyte AChE using acetylthiocholine iodide as substrate preincubated for 6 mins followed by substrate addition measured upto 180 secs by Ellman's method
[25] = Selectivity index, ratio of IC50 for human plasma BChE to IC50 for electric eel AChE
[26] = molecular target: T5, Cholinesterases; ACHE & BCHE (Homo sapiens); experiment: Selectivity index, ratio of IC50 for human whole red blood cells BChE to IC50 for human whole red blood cells AChE
[27] = molecular target: T6, Cholinesterase; experiment: Inhibition of human whole red blood cells BChE using butyrylthiocholine iodide as substrate incubated for 25 mins by Ellman's method
[28] = molecular target: T4, Acetylcholinesterase; experiment: Inhibition of human whole red blood cells AChE using acetylthiocholine iodide as substrate incubated for 25 mins by Ellman's method
[29] = molecular target: Acetylcholinesterase (Electrophorus electricus, UniProt O42275); experiment: Inhibition of electric eel AChE using acetylthiocholine iodide as substrate incubated for 5 mins followed by substrate addition by Ellman's method
Sequence of Acetylcholinesterase (Electrophorus electricus, UniProt O42275) (O42275 whole entry): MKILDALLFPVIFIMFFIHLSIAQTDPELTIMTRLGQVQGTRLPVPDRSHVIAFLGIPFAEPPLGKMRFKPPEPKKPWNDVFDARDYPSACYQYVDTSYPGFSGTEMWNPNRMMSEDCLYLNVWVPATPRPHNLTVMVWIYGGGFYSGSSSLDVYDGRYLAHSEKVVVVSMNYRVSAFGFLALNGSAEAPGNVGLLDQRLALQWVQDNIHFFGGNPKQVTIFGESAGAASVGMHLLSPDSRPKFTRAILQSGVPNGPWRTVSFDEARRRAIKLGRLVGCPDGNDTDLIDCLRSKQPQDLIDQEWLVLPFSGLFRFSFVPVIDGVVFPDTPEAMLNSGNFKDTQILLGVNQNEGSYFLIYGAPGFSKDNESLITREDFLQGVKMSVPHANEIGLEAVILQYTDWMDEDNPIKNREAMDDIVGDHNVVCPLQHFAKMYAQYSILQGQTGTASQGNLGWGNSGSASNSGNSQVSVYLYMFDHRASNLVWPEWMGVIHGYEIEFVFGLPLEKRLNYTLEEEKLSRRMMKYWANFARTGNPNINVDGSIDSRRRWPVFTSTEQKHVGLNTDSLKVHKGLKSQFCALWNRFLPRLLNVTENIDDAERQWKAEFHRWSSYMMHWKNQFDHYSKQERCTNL

[30] = molecular target: T5, Cholinesterases; ACHE & BCHE (Homo sapiens); experiment: Selectivity index, ratio of IC50 for recombinant human serum AChE to IC50 for recombinant human serum BChE; type: protein assay
[31] = molecular target: T6, Cholinesterase; experiment: Inhibition of recombinant human serum BChE using butyrylthiocholine iodide as substrate preincubated for 20 mins followed by substrate addition measured for 45 to 90 mins by Ellman's method
[32] = molecular target: Fatty-acid amide hydrolase 1 (Rattus norvegicus, UniProt P97612); experiment: Displacement of [14C]-ethanolamine from FAAH derived from rat brain membrane fraction preincubated for 20 mins followed by susbstrate addition by scintillation counting method; type: cell membranes
[33] = molecular target: Acetylcholinesterase (Bos taurus, UniProt P23795)
Sequence of Acetylcholinesterase (Bos taurus, UniProt P23795) (P23795 whole entry): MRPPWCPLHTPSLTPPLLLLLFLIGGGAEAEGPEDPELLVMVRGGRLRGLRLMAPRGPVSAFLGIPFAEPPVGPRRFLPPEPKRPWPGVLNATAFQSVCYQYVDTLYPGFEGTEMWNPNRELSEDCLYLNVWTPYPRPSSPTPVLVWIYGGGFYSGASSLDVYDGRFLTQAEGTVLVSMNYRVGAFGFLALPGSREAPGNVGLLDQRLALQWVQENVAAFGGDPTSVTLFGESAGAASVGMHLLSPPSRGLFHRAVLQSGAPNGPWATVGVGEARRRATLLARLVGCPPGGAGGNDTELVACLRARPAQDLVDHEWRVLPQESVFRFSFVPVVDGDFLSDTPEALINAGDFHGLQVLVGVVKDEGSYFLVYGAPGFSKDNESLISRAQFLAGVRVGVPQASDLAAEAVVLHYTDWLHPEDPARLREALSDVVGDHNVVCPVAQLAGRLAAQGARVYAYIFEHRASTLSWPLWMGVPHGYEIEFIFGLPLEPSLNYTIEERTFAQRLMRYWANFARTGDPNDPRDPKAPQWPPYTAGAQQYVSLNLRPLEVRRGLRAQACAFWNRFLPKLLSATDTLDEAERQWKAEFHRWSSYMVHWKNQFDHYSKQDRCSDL
Description: Inhibition of bovine AChE

[34] = molecular target: Cholinesterase (Equus caballus, UniProt P81908); experiment: Inhibition of equine BChE
Sequence of Cholinesterase (Equus caballus, UniProt P81908) (P81908 whole entry): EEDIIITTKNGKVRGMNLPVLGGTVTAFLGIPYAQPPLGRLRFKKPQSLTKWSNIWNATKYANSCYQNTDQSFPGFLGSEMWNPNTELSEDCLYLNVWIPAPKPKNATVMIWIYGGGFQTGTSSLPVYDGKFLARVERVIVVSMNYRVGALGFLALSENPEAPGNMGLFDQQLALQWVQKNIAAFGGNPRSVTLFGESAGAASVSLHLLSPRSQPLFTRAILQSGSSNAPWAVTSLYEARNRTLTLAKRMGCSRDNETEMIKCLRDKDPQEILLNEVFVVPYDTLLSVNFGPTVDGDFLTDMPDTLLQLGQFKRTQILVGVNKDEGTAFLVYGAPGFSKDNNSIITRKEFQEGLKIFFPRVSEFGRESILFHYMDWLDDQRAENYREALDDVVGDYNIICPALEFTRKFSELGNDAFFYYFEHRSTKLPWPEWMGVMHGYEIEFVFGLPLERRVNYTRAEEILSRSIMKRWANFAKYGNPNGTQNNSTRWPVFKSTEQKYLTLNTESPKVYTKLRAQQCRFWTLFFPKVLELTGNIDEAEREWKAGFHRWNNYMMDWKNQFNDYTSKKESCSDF

CC/N=C1\CCc2c1n(C)c1ccc(OC(=O)NC)c(Cl)c21
IC50 [1]: > 1000 µM
IC50 [2]: 0.16 µM
IC50 [3]: 0.1 µM

CCNC(=O)Oc1ccc(-c2cc(=O)c3c(O)c(O)c(O)cc3o2)cc1
Ratio IC50 [4]: 18.4
IC50 [5]: 1.2 µM
IC50 [6]: 22.1 µM

CC(C)(C)OC(=O)Nc1ccc(O)c(C(=O)NCCCN2CCCCC2)c1
IC50 [7]: 0.0151 µM
Ki [8]: 0.12 µM

CNC(=O)Oc1cccc(CN(C)CCCCCCCOc2ccc(-c3cc4ccccc4oc3=O)cc2)c1
Ratio IC50 [9]: 49
IC50 [10]: 0.0594 µM
IC50 [11]: 0.0012 µM

CCN(CC)C(=O)OC1C[N+]2(C)CCC1CC2 (stereo unspecified)
Ki [12]: 1.5 µM
Ki [13]: 3.5 µM

COc1cccc2c1CCCC2NS(=O)(=O)NC(=O)OCc1ccccc1 (stereo unspecified)
IC50 [14]: 0.00494 µM
IC50 [15]: 0.000209 µM
IC50 [16]: 0.00449 µM

CNC(=O)Oc1cccc2c1CCC1C2CCN1CCC1CCCCC1 (stereo unspecified)
Ki [17]: 0.657 µM
Ki [18]: 0.132 µM
Ki [19]: 1.52 µM
IC50 [20]: 0.058 µM

O=C(Nc1ccccc1)OC1CN2CCC1CC2 (stereo unspecified)
Ki [12]: 3 µM
Ki [13]: 1 µM

CCc1ccccc1NC(=O)Oc1ccc2c(c1)[C@]1(C)CC[N+](C)([O-])[C@@H]1N2C (stereo partly specified)
IC50 [21]: 0.00474 µM
Ratio IC50 [22]: 115

Cc1c(Cl)c(=O)oc2cc(OCCCCSC(=S)N3C(C)CCCC3C)ccc12 (stereo unspecified)
IC50 [23]: 5.85 µM
IC50 [24]: 0.114 µM

O=C(CCCCC1CCSS1)O[C@@H]1CO[C@H]2[C@@H]1OC[C@@H]2OC(=O)NCc1ccccc1 (stereo partly specified)
Ratio IC50 [25]: 667

COc1ccc(NC(=O)Oc2ccc3c(c2)[C@]2(O)CCN(C(C)=O)[C@@H]2N3)cc1
Ratio IC50 [26]: > 43
IC50 [27]: 2.31 µM
IC50 [28]: > 100 µM

COc1cc2c(cc1OC)C(=O)C(Cc1ccc(OC(=O)Nc3ccc(Cl)cc3)cc1)C2 (stereo unspecified)
IC50 [29]: 4.64 µM

CN(CCCOc1ccc2ccc(=O)oc2c1)Cc1cccc(OC(=O)NC2CCCC2)c1
Ratio IC50 [30]: 61.9
IC50 [31]: 0.00642 µM
IC50 [32]: 0.00253 µM

CCN(C)C(=O)Oc1cccc2c1NCC2CCC(=O)OC (stereo unspecified)
IC50 [33]: 0.008 µM
IC50 [34]: 61.6 µM
